Like-named read-outs stand apart in the source and are kept apart here.
Columns and labels:
[1] = test system: human biphenotypic B myelomonocytic leukemia MV4-11; test: Antiproliferative activity, MTT assay, 72 h; assay type: cell-based; conditions: for IC50: Homo sapiens, MV4-11, 72 h; for SI: IC50 MCF-10A / IC50 MV4-11
Procedure: (§1) The tested compounds were dissolved in DMSO (dimethyl sulfoxide) to a concentration of 10 mg/mL and then were diluted in the culture medium to reach the final concentrations. The cells were plated in 384-well plates at a density of 1 × 10^3 or 2 × 10^3 (MCF-10A) cells per well (Greiner Bio One, Kremsmünster, Austria) and in 96-well plates (MV4-11 cell; Sarstedt, Nümbrecht, Germany) at a density of 5 × 10^3 cells per well. After 24 h of incubation, the tested compounds were added at concentrations in the range of 100–0.03 µg/mL and, after the next 72 h of exposure to tested agents, the cytotoxic effect of all agents was examined using the MTT (MV4-11) or SRB assay, described previously. The values of IC50 (inhibitory concentration 50%) were calculated separately for each experiment (repeated 3–5 times) using the Prolab-3 system which is based on Cheburator 0.4 software. Doxorubicin was applied as a reference drug. The IC50 values in µg/mL were calculated to µM.
This assay was used against MV4-11 leukemia cells and was performed after 72 h of exposure of the tested agents to the cells. For each well, 20 µL of the MTT [3-(4,5-dimethylthiazol-2-yl)-2,5-diphenyl tetrazolium bromide] solution (5 mg/mL, Merck, Darmstadt, Germany) was added. After the incubation time (4 h at 37 °C), 80 µL of the lysing buffer was added to each well (mixture of 225 mL of DMF (dimethylformamide) Avantor, Poland; 67.5 g of SDS, Merck, Darmstadt, Germany; and 275 mL of distilled water). After the next 24 h, the absorbance of the samples was measured at a 570 nm wavelength on a Synergy H4 photometer (BioTek Instruments, Winooski, VT, USA). The absorbance of wells without the cells was the background.

[2] = test system: human prostate adenocarcinoma PC-3; test: Antiproliferative activity, SRB assay, 72 h; assay type: cell-based; conditions: for IC50: Homo sapiens; for SI: IC50 MCF-10A / IC50 PC-3
Procedure: as §1
(§2) The cytotoxicity assay was performed after the cultured cells were exposed to the tested agents for 72 h using the authomatic Washer dyspenser EL406, BioTek. At the first step, the washer dispenser collected 40 µL of cultured medium from each wells, and then the cells were fixed by gently layering 20 µL per well of cold 25% trichloroacetic acid to each well. The incubation time was 40 min and then the plates were washed with tap water. The cells were stained with 20 µL per well of 0.1% sulforhodamine B (SRB, Merck, Darmstadt, Germany) for 30 min. Unbound sulforhodamine B was removed by washing it with 1% acetic acid. The protein-bound dye was extracted in 30 min using 70 µL per well of 10 mM unbuffered Tris base (Merck, Darmstadt, Germany). The absorbance (at 540 nm) was measured on a Synergy H4 photometer (BioTek Instruments, Winooski, VT, USA). The absorbance of the wells without the cells was the background.

[3] = test system: human melanoma Hs294T cells; test: Antiproliferative activity, SRB assay, 72 h; assay type: cell-based; conditions: for IC50: Homo sapiens, Hs 294T, 72 h; for SI: IC50 MCF-10A / IC50 Hs249T (so in the source)
Procedure: as §1, §2

[4] = test system: human pancreas cancer MiaPaca-2 cells; test: Antiproliferative activity, SRB assay, 72 h; assay type: cell-based; conditions: for IC50: Homo sapiens; for SI: IC50 MCF-10A / IC50 MiaPaca-1 (so in the source)
Procedure: as §1, §2

[5] = test system: human lung carcinoma A549; test: Antiproliferative activity, SRB assay, 72 h; assay type: cell-based; conditions: for IC50: Homo sapiens, A549, 72 h; for SI: IC50 MCF-10A / IC50 A549
Procedure: as §1, §2

[6] = test system: human breast cancer MCF-7; test: Antiproliferative activity, SRB assay, 72 h; assay type: cell-based; conditions: for IC50: Homo sapiens; for SI: IC50 MCF-10A / IC50 MCF-7
Procedure: as §1, §2

[7] = test system: human colon cancer HCT116 cells; test: Antiproliferative activity, SRB assay, 72 h; assay type: cell-based; conditions: for IC50: Homo sapiens; for SI: IC50 MCF-10A / IC50 HCT116
Procedure: as §1, §2

MV4-11 cells = test: Apoptosis determination via Annexin V and PI staining; assay type: cell-based, human
Procedure: Camptothecin at a concentration of 0.05 uM was used as a positive control. After incubation, the cells were collected and counted with a hemocytometer, and 1×10^5 cells were washed twice with PBS. APC-Annexin V (Becton Dickinson, Pharmingen, Franklin Lakes, NJ, USA) was dissolved to the concentration of […] in a binding buffer (10 mM HEPES/NaOH, pH 7.4; 150 mM NaCl; 5 mM KCl; 1 mM MgCl2; and 1.8 mM CaCl2) (HIIET, Wrocław, Poland), and the cells were suspended in 200 µL of this solution. After 15 min of the incubation in the dark at room temperature, 20 µL of propidium iodide (PI) solution (0.02 mg/mL) was added. Data acquisition was performed by conducting flow cytometry using a BD LSRFortessa cytometer (BD Bioscience, San Jose, CA, USA). The compounds were tested at least three times independently. Results were analyzed using Flowing software 2.5.1 (Turku, Finland). […] Double-negative cells were live cells, PI+/Annexin V+ were late apoptotic cells, PI-/Annexin V+ were early apoptotic cells, and PI+/Annexin V- were necrotic cells.

[8] = test system: human normal epithelial cells from the mammary gland (MCF-10A); test: Cytotoxicity on non-tumorigenic cells, SRB assay, 72 h; assay type: cell-based; conditions: Homo sapiens
Procedure: as §1, §2

[9] = PC-3, 72 h, SRB, read-out: IC50
[10] = Hs249T (so in the source), SRB, read-out: IC50
[11] = MIA PaCa-2, MiaPaca-1 (so in the source), 72 h, SRB, read-out: IC50
[12] = MCF7, MCF-7, 72 h, SRB, read-out: IC50
[13] = HCT-116, HCT116, 72 h, SRB, read-out: IC50
[14] = MV4-11, 72 h, higher concentrations
[15] = MCF-10A normal cells, SRB, read-out: IC50

C=C(C)[C@@H]1CC[C@]2(CO)CC[C@]3(C)C(CCC4[C@@]5(C)CC[C@H](OC(=O)CCC(=O)O)C(C)(C)C5CC[C@]43C)C12 (stereo partly shown) [Compound 6]
IC50 ([1]; MTT, read-out: IC50): 6.45 ± 2.03 µM
SI [1]: 4.94
IC50 [2, 9]: 26.2 ± 5.71 µM
SI [2]: 1.22
IC50 [3, 10]: 32.1 ± 1.66 µM
SI [3]: 0.99
IC50 [4, 11]: 38.1 ± 3.87 µM
SI [4]: 0.84
IC50 ([5]; SRB, read-out: IC50): 8.66 ± 1.1 µM
SI [5]: 3.68
IC50 [6, 12]: 19 ± 6.45 µM
SI [6]: 1.68
IC50 [7, 13]: 20.3 ± 5.53 µM
SI [7]: 1.57
induction of apoptosis (MV4-11 cells; [14]): induction of apoptosis was observed
IC50 [8, 15]: 31.9 ± 4.24 µM

C#CC(=O)OC[C@]12CC[C@@H](C(=C)C)C1C1CCC3[C@@]4(C)CC[C@H](OC(=O)CC(C)(C)CC(=O)O)C(C)(C)C4CC[C@@]3(C)[C@]1(C)CC2 (stereo partly shown) [Compound 4a]
IC50 ([1]; MTT, read-out: IC50): 0.38 ± 0.14 µM
IC50 [2, 9]: 0.86 ± 0.25 µM
IC50 [3, 10]: 0.49 ± 0.23 µM
SI [3]: 67
IC50 [4, 11]: 7.54 ± 0.47 µM
SI [4]: 4.40
IC50 ([5]; SRB, read-out: IC50): 7.54 ± 1.25 µM
SI [5]: 4.40
IC50 [6, 12]: 16.5 ± 1.88 µM
SI [6]: 2.01
IC50 [7, 13]: 7.85 ± 2.35 µM
SI [7]: 4.22
induction of apoptosis (MV4-11 cells; MV4-11, 24 h): induced apoptosis
induction of apoptosis (MV4-11 cells; [14]): induction of apoptosis was observed
IC50 [8, 15]: 33.1 ± 5.18 µM

C=C(C)[C@@H]1CC[C@]2(COC(=O)CC)CC[C@]3(C)C(CCC4[C@@]5(C)CC[C@H](OC(=O)CC(C)(C)CC(=O)O)C(C)(C)C5CC[C@]43C)C12 (stereo partly shown) [Compound 4d]
IC50 ([1]; MTT, read-out: IC50): 5.15 ± 0.47 µM
SI [1]: 11.73
IC50 [2, 9]: 21.7 ± 4.52 µM
SI [2]: 2.78
IC50 [3, 10]: 18.7 ± 9.67 µM
SI [3]: 3.23
IC50 [4, 11]: 34.2 ± 2.96 µM
SI [4]: 1.77
IC50 ([5]; SRB, read-out: IC50): 6.24 ± 1.25 µM
SI [5]: 9.68
IC50 [6, 12]: 20.6 ± 5.77 µM
SI [6]: 2.93
IC50 [7, 13]: 16.9 ± 5.61 µM
SI [7]: 3.58
IC50 [8, 15]: 60.4 ± 15.9 µM

C#CCCC(=O)OC[C@]12CC[C@@H](C(=C)C)C1C1CCC3[C@@]4(C)CC[C@H](OC(=O)CCC(=O)O)C(C)(C)C4CC[C@@]3(C)[C@]1(C)CC2 (stereo partly shown) [Compound 6b]
IC50 ([1]; MTT, read-out: IC50): 3.53 ± 0.64 µM
SI [1]: 8.68
IC50 [2, 9]: 13.2 ± 2.57 µM
SI [2]: 2.33
IC50 [3, 10]: 17.5 ± 6.26 µM
SI [3]: 1.75
IC50 [4, 11]: 27.4 ± 2.57 µM
SI [4]: 1.12
IC50 ([5]; SRB, read-out: IC50): 3.21 ± 0.64 µM
SI [5]: 9.55
IC50 [6, 12]: 11.4 ± 4.17 µM
SI [6]: 2.69
IC50 [7, 13]: 9.95 ± 0.64 µM
SI [7]: 3.08
IC50 [8, 15]: 30.7 ± 3.69 µM

C=C(C)[C@@H]1CC[C@]2(COC(C)=O)CC[C@]3(C)C(CCC4[C@@]5(C)CC[C@H](OC(=O)CC(C)(C)CC(=O)O)C(C)(C)C5CC[C@]43C)C12 (stereo partly shown) [Compound 1]
IC50 ([1]; MTT, read-out: IC50): 2.9 ± 0.26 µM
SI [1]: 11.44
IC50 [2, 9]: 14 ± 7.02 µM
SI [2]: 2.36
IC50 [3, 10]: 11.6 ± 1.12 µM
SI [3]: 2.85
IC50 [4, 11]: 23.6 ± 3.83 µM
SI [4]: 1.41
IC50 ([5]; SRB, read-out: IC50): 4.94 ± 0.48 µM
SI [5]: 6.71
IC50 [6, 12]: 7.02 ± 2.39 µM
SI [6]: 4.73
IC50 [7, 13]: 6.38 ± 2.87 µM
SI [7]: 5.20
IC50 [8, 15]: 33.2 ± 1.91 µM

C=C(C)[C@@H]1CC[C@]2(COC(C)=O)CC[C@]3(C)C(CCC4[C@@]5(C)CC[C@H](OC(=O)CC(C)(C)C(=O)O)C(C)(C)C5CC[C@]43C)C12 (stereo partly shown) [Compound 2, 28-acetyl-3-(3′,3′-dimethylsuccinyl)betulin]
IC50 [1]: 4.4 ± 1.63 µM
SI [1]: 7.70
IC50 ([2]; 72 h): 20.1 ± 2.12 µM
SI [2]: 1.69
IC50 [3]: 27.6 ± 0.65 µM
SI [3]: 1.23
IC50 ([4]; MIA PaCa-2, 72 h): 28.2 ± 4.4 µM
SI [4]: 1.20
IC50 [5]: 4.57 ± 1.79 µM
SI [5]: 7.43
IC50 ([6]; MCF7, 72 h): 16.6 ± 7.67 µM
SI [6]: 2.04
IC50 ([7]; HCT-116, 72 h): 10.9 ± 2.94 µM
SI [7]: 3.10
IC50 ([8]; MCF-10A): 33.9 ± 4.24 µM

C=C(C)[C@@H]1CC[C@]2(COC(=O)CC)CC[C@]3(C)C(CCC4[C@@]5(C)CC[C@H](OC(=O)CC(C)(C)C(=O)O)C(C)(C)C5CC[C@]43C)C12 (stereo partly shown) [Compound 5d]
IC50 ([1]; MTT, read-out: IC50): 2.5 ± 0.48 µM
SI [1]: 13.63
IC50 [2, 9]: 16.6 ± 6.54 µM
SI [2]: 2.06
IC50 [3, 10]: 59.7 ± 38.6 µM
SI [3]: 0.57
IC50 [4, 11]: 29.2 ± 1.59 µM
SI [4]: 1.17
IC50 ([5]; SRB, read-out: IC50): 4.62 ± 1.59 µM
SI [5]: 7.38
IC50 [6, 12]: 21.1 ± 9.89 µM
SI [6]: 1.62
IC50 [7, 13]: 12.3 ± 4.15 µM
SI [7]: 2.78
IC50 [8, 15]: 34.1 ± 4.94 µM

C=C(C)[C@@H]1CC[C@]2(COC(=O)C#CC)CC[C@]3(C)C(CCC4[C@@]5(C)CC[C@H](OC(=O)CC(C)(C)C(=O)O)C(C)(C)C5CC[C@]43C)C12 (stereo partly shown) [Compound 5c]
IC50 ([1]; MTT, read-out: IC50): 11 ± 1.1 µM
SI [1]: 2.91
IC50 [2, 9]: 22.9 ± 4.71 µM
SI [2]: 1.40
IC50 [3, 10]: 23.2 ± 3.77 µM
SI [3]: 1.38
IC50 [4, 11]: 32 ± 6.12 µM
SI [4]: 1.00
IC50 ([5]; SRB, read-out: IC50): 6.59 ± 1.88 µM
SI [5]: 4.86
IC50 [6, 12]: 25 ± 4.87 µM
SI [6]: 1.28
IC50 [7, 13]: 9.26 ± 0.47 µM
SI [7]: 3.46
IC50 [8, 15]: 32 ± 4.87 µM

Source: PMC11821258 (Molecules, 2025)
